Measurements from ChEMBL document CHEMBL4052803, “Synthesis and anti-tumor evaluation of panaxadiol halogen-derivatives” (Bioorg Med Chem Lett, 2017).

Experiments:
[1] = system: SW480; assay: Antiproliferative activity against human SW480 cells after 48 hrs by MTT assay; format: functional, cell-based; details: SW480, 48 h
[2] = system: HCT-116; assay: Antiproliferative activity against human HCT116 cells after 48 hrs by MTT assay; format: functional, cell-based; details: HCT-116, 48 h
[3] = system: BGC-823; assay: Antiproliferative activity against human BGC823 cells after 48 hrs by MTT assay; format: functional, cell-based; details: BGC-823, 48 h
[4] = system: GES1; assay: Antiproliferative activity against human GES-1 cells after 48 hrs by MTT assay; format: cell-based; details: GES1, 48 h
[5] = Antiproliferative activity against HHDPC cells after 48 hrs by MTT assay; format: cell-based; details: Homo sapiens
[6] = system: H9c2; assay: Antiproliferative activity against rat H9c2 cells after 48 hrs by MTT assay; format: cell-based; details: H9c2, 48 h

Structure (SMILES) | IC50 [1] [µM] | IC50 [2] [µM] | IC50 [3] [µM] | IC50 [4] [µM] | IC50 [5] [µM] | IC50 [6] [µM]
CC1(C)CCC[C@@](C)([C@H]2CC[C@]3(C)[C@@H]2[C@H](O)C[C@@H]2[C@@]4(C)CC[C@H](O)C(C)(C)[C@@H]4CC[C@]23C)O1 | 73.4 | > 100 | 80.1 | 116 | 141 | 214
CC(C)(CCC[C@@]1(C)O[C@@H]2C[C@@H]3[C@@]4(C)CC[C@H](OC(=O)CCl)C(C)(C)[C@@H]4CC[C@@]3(C)[C@]3(C)CC[C@H]1[C@@H]23)OC(=O)CCl | 30.4 | 42.3 | > 100 | 125 | 100 | 281
C/C(=C\CCC(C)(C)O)[C@H]1CC[C@]2(C)[C@@H]1[C@H](OC(=O)CBr)C[C@@H]1[C@@]3(C)CC[C@H](O)C(C)(C)[C@@H]3CC[C@]12C | 0.118 | 5.34 | 0.622 | 26.1 | 36.4 | 48.8
CC(C)=CC/C=C(\C)[C@H]1CC[C@]2(C)C1=CC[C@@H]1[C@@]3(C)CC[C@H](OC(=O)CBr)C(C)(C)[C@@H]3CC[C@]12C | 39.4 | 3.59 |  | 77.6 | 90.6 | 131
CC(C)=CC/C=C(\C)[C@H]1CC[C@]2(C)[C@@H]1[C@H](Br)C[C@@H]1[C@@]3(C)CC[C@H](OC(=O)CBr)C(C)(C)[C@@H]3CC[C@]12C | 18 | 58.1 | 95 | 121 | 157 | 250
CC1(C)CCC[C@](C)([C@H]2CC[C@]3(C)[C@@H]2[C@H](OC(=O)CBr)C[C@@H]2[C@@]4(C)CC[C@H](OC(=O)CBr)C(C)(C)[C@@H]4CC[C@]23C)O1 | 15.2 | 3.86 | 15.6 | 99.4 | 140 | 158
CC(C)=CC/C=C(\C)[C@H]1CC[C@]2(C)[C@@H]1[C@H](OC(=O)CCl)C[C@@H]1[C@@]3(C)CC[C@H](OC(=O)CCl)C(C)(C)[C@@H]3CC[C@]12C | 13.7 | 12.6 | > 100 | 100 | 89.5 | 180
CC1(C)CCC[C@](C)([C@H]2CC[C@]3(C)[C@@H]2[C@H](OC(=O)CCl)C[C@@H]2[C@@]4(C)CC[C@H](OC(=O)CCl)C(C)(C)[C@@H]4CC[C@]23C)O1 | > 100 | > 100 | > 100 | 180 | 226 | > 500
C/C(=C\CCC(C)(C)O)[C@H]1CC[C@]2(C)[C@@H]1[C@H](OC(=O)CBr)C[C@@H]1[C@@]3(C)CC[C@H](OC(=O)CBr)C(C)(C)[C@@H]3CC[C@]12C | 1.22 | 50.9 | 1.08 | 35.1 | 42.1 | 36.6
C/C(=C\CCC(C)(C)OC(=O)CBr)[C@H]1CC[C@]2(C)C1=CC[C@@H]1[C@@]3(C)CC[C@H](OC(=O)CBr)C(C)(C)[C@@H]3CC[C@]12C | 31.4 | 7.14 | 82.1 | 142 | 200 | 161
C/C(=C\CCC(C)(C)O)[C@H]1CC[C@]2(C)[C@@H]1[C@H](OC(=O)CCl)C[C@@H]1[C@@]3(C)CC[C@H](OC(=O)CCl)C(C)(C)[C@@H]3CC[C@]12C | 5.49 | 8.33 | 4.28 | 110 | 61.9 | 86.2
CC1(C)CCC[C@@](C)([C@H]2CC[C@]3(C)[C@@H]2[C@H](O)C[C@@H]2[C@@]4(C)CC[C@H](OC(=O)CBr)C(C)(C)[C@@H]4CC[C@]23C)O1 | 14.2 |  | 14.7 | 115 | 118 | 120
CC1(C)CCC[C@@](C)([C@H]2CC[C@]3(C)[C@@H]2[C@H](O)C[C@@H]2[C@@]4(C)CC[C@H](OC(=O)CCl)C(C)(C)[C@@H]4CC[C@]23C)O1 | 15.8 | 42.3 | 17.1 | 107 | 120 | 121
